Test results taken from ChEMBL document CHEMBL2375236, “Strategic use of conformational bias and structure based design to identify potent JAK3 inhibitors with improved selectivity against the JAK family and the kinome” (Bioorg Med Chem Lett, 2013).
pIC50, pKd: −log10 of the molar value. ≈ marks a conversion by molar mass, not a printed value.

Tests used:
[1] = target: T1, Tyrosine-protein kinase JAK1 (Homo sapiens, UniProt P23458)
[2] = target: T2, Tyrosine-protein kinase JAK3 (Homo sapiens, UniProt P52333)
T2 sequence (P52333 whole entry): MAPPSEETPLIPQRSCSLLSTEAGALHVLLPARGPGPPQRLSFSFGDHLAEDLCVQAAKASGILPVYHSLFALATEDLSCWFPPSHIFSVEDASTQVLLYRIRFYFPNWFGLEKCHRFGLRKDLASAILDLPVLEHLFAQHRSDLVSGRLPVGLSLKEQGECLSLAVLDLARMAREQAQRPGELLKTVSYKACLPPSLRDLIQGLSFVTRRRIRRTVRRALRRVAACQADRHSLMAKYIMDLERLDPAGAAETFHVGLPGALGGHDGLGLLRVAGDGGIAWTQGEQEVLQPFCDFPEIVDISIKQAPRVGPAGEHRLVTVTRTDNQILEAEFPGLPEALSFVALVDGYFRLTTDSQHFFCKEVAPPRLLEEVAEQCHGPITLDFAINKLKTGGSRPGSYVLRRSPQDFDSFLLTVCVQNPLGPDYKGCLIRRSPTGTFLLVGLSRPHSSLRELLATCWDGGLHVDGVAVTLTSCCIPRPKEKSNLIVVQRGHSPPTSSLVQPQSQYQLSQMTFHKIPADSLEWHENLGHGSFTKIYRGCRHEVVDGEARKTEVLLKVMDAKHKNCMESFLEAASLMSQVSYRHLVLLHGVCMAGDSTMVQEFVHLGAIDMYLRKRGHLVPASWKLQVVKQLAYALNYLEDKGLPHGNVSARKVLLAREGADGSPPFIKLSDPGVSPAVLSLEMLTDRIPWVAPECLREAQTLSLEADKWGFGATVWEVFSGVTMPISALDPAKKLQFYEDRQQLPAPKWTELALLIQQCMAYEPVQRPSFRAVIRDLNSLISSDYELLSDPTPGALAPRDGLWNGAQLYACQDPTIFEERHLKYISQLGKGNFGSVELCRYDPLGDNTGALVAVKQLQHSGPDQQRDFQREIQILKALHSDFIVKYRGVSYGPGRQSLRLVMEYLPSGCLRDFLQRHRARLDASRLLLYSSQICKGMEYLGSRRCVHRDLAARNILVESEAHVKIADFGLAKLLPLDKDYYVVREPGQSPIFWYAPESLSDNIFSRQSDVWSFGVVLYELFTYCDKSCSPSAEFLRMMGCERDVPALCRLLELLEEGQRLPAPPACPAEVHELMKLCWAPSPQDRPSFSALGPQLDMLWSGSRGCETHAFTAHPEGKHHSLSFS

[3] = target: Non-receptor tyrosine-protein kinase TYK2 (Homo sapiens, UniProt P29597)
Description: Binding affinity to TYK2 (unknown origin) by ligand displacement assay

[4] = target: T1, Tyrosine-protein kinase JAK1; remark: listed apart in the source
Description: Binding affinity to JAK1 (unknown origin) by ligand displacement assay

Compound	solubility (physchem) [µg/mL]	pIC50 [1]	further results
CCn1cc(-c2cnc3[nH]cc(C(=O)N[C@H](C)C(=O)N4CC(C#N)C4)c3n2)cn1	366 (≈ 933 µM)	7.64	pIC50 [2]: 8.28
C[C@@H](NC(=O)c1c[nH]c2ncc(-c3nn(C)c4cc(Cl)ccc34)nc12)C(=O)N1CC(C#N)C1	< 1	7.51	pKd [3]: 6.46; pKd [4]: 7.14
C[C@@H](NC(=O)c1c[nH]c2ncc(-c3nn(C)c4ccc(Cl)cc34)nc12)C(=O)N1CC(C#N)C1		7.21	
C[C@@H](NC(=O)c1c[nH]c2ncc(-c3nn(C)c4ccccc34)nc12)C(=O)N1CC(C#N)C1		7.66	
C[C@@H](NC(=O)c1c[nH]c2ncc(-c3nn(C)c4cc(C5CC5)ccc34)nc12)C(=O)N1CC(C#N)C1		8.00	
C[C@@H](NC(=O)c1c[nH]c2ncc(-c3nn(C)c4cc(Cl)cc(F)c34)nc12)C(=O)N1CC(C#N)C1	< 1		
CC[C@@H](NC(=O)c1c[nH]c2ncc(-c3nn(C)c4cc(Cl)ccc34)nc12)C(=O)N1CC(C#N)C1	< 1	8.34	
C[C@@H](NC(=O)c1c[nH]c2ncc(-c3ncn4cc(F)cc(F)c34)nc12)C(=O)N1CC(C#N)C1	31 (≈ 68.8 µM)	7.14	

The next lines start with results.

solubility (physchem) [µg/mL]	pIC50 [1]	Compound	further results
277 (≈ 819 µM)		C[C@@H](NC(=O)c1c[nH]c2ncc(C3CC3)nc12)C(=O)N1CC(C#N)C1	
	8.13	COc1cc(-c2cnc3[nH]cc(C(=O)N[C@H](C)C(=O)N4CC(C#N)C4)c3n2)cc(OC)c1OC	
< 1	9.00	C[C@@H](NC(=O)c1c[nH]c2ncc(-c3cn(C)c4cc(Cl)ccc34)nc12)C(=O)N1CC(C#N)C1	
< 1	7.77	C[C@@H](NC(=O)c1c[nH]c2ncc(-c3nn(C)c4cc(F)ccc34)nc12)C(=O)N1CC(C#N)C1	
< 1	7.29	C[C@@H](NC(=O)c1c[nH]c2ncc(-c3nn(C)c4cc(C#N)ccc34)nc12)C(=O)N1CC(C#N)C1	
< 1	7.42	COc1ccc2c(-c3cnc4[nH]cc(C(=O)N[C@H](C)C(=O)N5CC(C#N)C5)c4n3)nn(C)c2c1	
	7.92	C[C@@H](NC(=O)c1c[nH]c2ncc(-c3nn(C)c4cc(C(C)(C)C)ccc34)nc12)C(=O)N1CC(C#N)C1	
	9.10	Cn1nc(-c2cnc3[nH]cc(C(=O)N[C@@H](C(=O)N4CC(C#N)C4)C4CC4)c3n2)c2ccc(Cl)cc21	
	8.26	Cn1nc(-c2cnc3[nH]cc(C(=O)N[C@@H](C(=O)N4CC(C#N)C4)C(C)(C)C)c3n2)c2ccc(Cl)cc21	
< 1	6.43	C[C@@H](NC(=O)c1c[nH]c2ncc(-n3ncc4cc(Cl)ccc43)nc12)C(=O)N1CC(C#N)C1	
39 (≈ 90.2 µM)	7.80	C[C@@H](NC(=O)c1c[nH]c2ncc(-c3ncn4cc(F)ccc34)nc12)C(=O)N1CC(C#N)C1	
	7.21	C[C@@H](NC(=O)c1c[nH]c2ncc(-c3cnc4cc(Cl)ccn34)nc12)C(=O)N1CC(C#N)C1	
